The values below come from patent publication US11046699B2, “Pyrazolo-pyrimidin-amino-cycloalkyl compounds and their therapeutic uses” (RAPT THERAPEUTICS, INC., priority 2018, dated 2021).

The target in this test is GCN2 (Homo sapiens, UniProt Q9P2K8). As to the kind of experiment: GCN2 enzymatic endpoint assay: phosphorylation of GFP-eIF2α measured by TR-FRET (Lanthascreen). The format is biochemical. The essentials:
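Endpoint GCN2 reaction with low ATP (2 μM) and 80 nM GFP-eIF2α, room temperature, 90 minutes. Detection mix with EDTA and Tb-labelled antibody; 520 nm/495 nm emission ratio reported.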
(In TR-FRET formats the signal depends on donor and acceptor labels being close together.)

Where [1] appears, read: tested as described in Example 77, compound and/or hydrochloride, dihydrochloride or trifluoroacetic acid salt, read-out: IC 50 Activity.
The mark [2] stands for this setting: GCN2 biochemical IC50, 4 nM GCN2, 2 μM ATP, 80 nM GFP-eIF2α, 90 min RT, read-out: GCN2 activity.

SMILES strings stand for the structures. Read-outs that look alike come from different tables or passages of the source.

Chain of GCN2 (Q9P2K8 whole entry): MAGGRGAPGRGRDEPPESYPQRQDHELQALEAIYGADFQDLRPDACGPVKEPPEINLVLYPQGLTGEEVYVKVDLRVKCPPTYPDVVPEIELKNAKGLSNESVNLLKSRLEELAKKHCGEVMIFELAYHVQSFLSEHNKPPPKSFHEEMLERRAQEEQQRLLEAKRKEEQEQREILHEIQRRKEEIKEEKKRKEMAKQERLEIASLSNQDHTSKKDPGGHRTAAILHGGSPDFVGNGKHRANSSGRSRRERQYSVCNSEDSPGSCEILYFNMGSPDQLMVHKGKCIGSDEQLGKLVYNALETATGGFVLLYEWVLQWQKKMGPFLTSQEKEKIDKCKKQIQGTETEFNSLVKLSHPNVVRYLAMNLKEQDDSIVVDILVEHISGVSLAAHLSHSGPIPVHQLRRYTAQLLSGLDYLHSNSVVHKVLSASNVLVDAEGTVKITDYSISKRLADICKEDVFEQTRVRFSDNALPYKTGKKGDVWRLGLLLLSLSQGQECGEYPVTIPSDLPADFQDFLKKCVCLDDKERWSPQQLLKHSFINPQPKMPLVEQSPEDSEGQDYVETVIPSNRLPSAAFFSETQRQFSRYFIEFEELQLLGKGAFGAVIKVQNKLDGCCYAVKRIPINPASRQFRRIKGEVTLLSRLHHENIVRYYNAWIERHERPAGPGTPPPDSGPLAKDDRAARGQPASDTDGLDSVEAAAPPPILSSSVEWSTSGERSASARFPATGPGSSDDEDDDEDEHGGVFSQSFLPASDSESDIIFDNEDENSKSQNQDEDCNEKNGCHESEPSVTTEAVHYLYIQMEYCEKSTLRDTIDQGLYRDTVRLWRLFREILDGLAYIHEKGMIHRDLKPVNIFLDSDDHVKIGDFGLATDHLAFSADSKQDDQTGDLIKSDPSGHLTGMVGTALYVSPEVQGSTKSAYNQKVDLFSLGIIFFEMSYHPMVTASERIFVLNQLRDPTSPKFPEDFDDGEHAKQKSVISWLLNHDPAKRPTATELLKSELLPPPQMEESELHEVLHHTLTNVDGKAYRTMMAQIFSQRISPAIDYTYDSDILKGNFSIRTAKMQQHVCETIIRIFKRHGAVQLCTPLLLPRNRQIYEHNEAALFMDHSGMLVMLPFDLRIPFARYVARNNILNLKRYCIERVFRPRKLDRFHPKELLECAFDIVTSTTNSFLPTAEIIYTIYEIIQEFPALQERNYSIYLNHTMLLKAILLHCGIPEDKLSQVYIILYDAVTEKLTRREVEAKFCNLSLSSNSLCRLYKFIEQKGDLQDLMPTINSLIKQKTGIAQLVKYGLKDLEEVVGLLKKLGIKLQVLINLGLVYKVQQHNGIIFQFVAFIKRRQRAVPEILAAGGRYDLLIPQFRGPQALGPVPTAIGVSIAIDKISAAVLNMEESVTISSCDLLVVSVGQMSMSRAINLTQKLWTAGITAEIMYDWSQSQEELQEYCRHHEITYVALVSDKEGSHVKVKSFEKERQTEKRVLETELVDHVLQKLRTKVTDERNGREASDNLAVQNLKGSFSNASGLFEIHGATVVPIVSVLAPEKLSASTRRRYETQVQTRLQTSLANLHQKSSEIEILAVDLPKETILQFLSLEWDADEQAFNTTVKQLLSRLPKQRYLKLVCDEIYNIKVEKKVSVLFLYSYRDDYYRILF

As for `CNC(=O)[C@]1(C)CC[C@@H](Nc2ncc3c(Br)nn(-c4ccc(-c5nnc(C(C)N)s5)cc4)c3n2)C1` (stereo partly drawn) [(1R,3R)-3-[[1-[4-[5-(1-aminoethyl)-1,3,4-thiadiazol-2-yl]phenyl]-3-bromo-pyrazolo [3,4-d]pyrimidin-6-yl]amino]-N,1-dimethyl-cyclopentanecarboxamide], the IC50 under setting [1] lay within 25 to 200 nM.
Turning to `CN(C)C(=O)N1CC[C@@H](Nc2ncc3c(Br)nn(-c4ccc5ncccc5c4)c3n2)C1` [(R)-3-((3-bromo-1-(quinolin-6-yl)-1H-pyrazolo [3,4-d]pyrimidin-6-yl)amino)-N,N-dimethyl-pyrrolidine-1-carboxamide], the IC50 under setting [1] was in the range of 500 to 1000 nM.
Consider `COC[C@@H](C)NC(=O)[C@@H]1CCC[C@@H](Nc2ncc3c(Br)nn(-c4ccc5ncccc5c4)c3n2)C1` [(1R,3R)-3-((3-bromo-1-(quinolin-6-yl)-1H-pyrazolo[3,4-d]pyrimidin-6-yl)amino)-N-((R)-1-methoxypropan-2-yl)cyclohexane-1-carboxamide], for which, under setting [1], the IC50 fell in the range of 500 to 1000 nM.
`CNC(=O)[C@]1(C)CC[C@@H](Nc2ncc3c(Br)nn(-c4ccc5ncncc5c4)c3n2)C1` [(1R,3R)-3-[(3-bromo-1-quinazolin-6-yl-pyrazolo[3,4-d]pyrimidin-6-yl)amino]-N,1-dimethyl-cyclopentane-carboxamide]: the IC50 under setting [1] was 25 to 200 nM.
As for `CC(F)(F)CNC(=O)[C@@H]1CC[C@@H](Nc2ncc3c(Br)nn(-c4cc(C#N)c5ncccc5c4)c3n2)C1` [(1R,3R)-3-((3-bromo-1-(8-cyanoquinolin-6-yl)-1H-pyrazolo[3,4-d]pyrimidin-6-yl)amino)-N-(2,2-difluoropropyl)cyclopentane-1-carboxamide], under setting [1], the IC50 is 25 to 200 nM.
Turning to `CNC(=O)[C@]1(CC(F)F)CC[C@@H](Nc2ncc3c(Br)nn(-c4ccc5ncncc5c4)c3n2)C1` [(1R,3R)-3-[(3-bromo-1-quinazolin-6-yl-pyrazolo[3,4-d]pyrimidin-6-yl)amino]-1-(2,2-difluoroethyl)-N-methyl-cyclopentanecarboxamide], the IC50 under setting [1] fell in the range of 25 to 200 nM.
In the case of `O=C([C@@H]1CC[C@@H](Nc2ncc3c(Br)nn(-c4ccc5ncccc5c4)c3n2)C1)N1C[C@H]2C[C@@H]1CO2` [((1R,4R)-2-oxa-5-azabicyclo[2.2.1]heptan-5-yl) ((1R,3R)-3-((3-bromo-1-(quinolin-6-yl)-1H-pyrazolo[3,4-d]pyrimidin-6-yl)amino)cyclo-pentyl)methanone], the IC50 under setting [1] was 25 to 200 nM.
For `O=C([C@@H]1CC[C@@H](Nc2ncc3c(Br)nn(-c4ccc5ncccc5c4)c3n2)C1)N1CC(N2CCS(=O)(=O)CC2)C1` [((1R,3R)-3-((3-bromo-1-(quinolin-6-yl)-1H-pyrazolo[3,4-d]pyrimidin-6-yl)amino)cyclo-pentyl)(3-(1,1-dioxidothiomorpholino)azetidin-1-yl)methanone], the IC50 under setting [1] was 25 to 200 nM.
As for `Brc1nn(-c2ccc3ncccc3c2)c2nc(N[C@@H]3CCC(N4CCOCC4)C3)ncc12` (mixture of isomers) [Example 7, 3-bromo-N-(3-morpholinocyclopentyl)-1-(quinolin-6-yl)-1H-pyrazolo[3,4-d]pyrimidin-6-amine], the IC50 under setting [2] was 25 to 200 nM.
With `COCCNC(=O)[C@@H]1CC[C@@H](Nc2ncc3c(Br)nn(-c4ccc(-c5cccnc5)cc4)c3n2)C1` [Example 24, (1R,3R)-3-((3-bromo-1-(4-(pyridin-3-yl)phenyl)-1H-pyrazolo[3,4-d]pyrimidin-6-yl)amino)-N-(2-methoxyethyl)cyclopentane-1-carboxamide], under setting [2], the IC50 was in the range of 200 to 500 nM.
As for `CP(C)(=O)[C@@H]1CC[C@@H](Nc2ncc3c(Br)nn(-c4cc(C5CCNC5)c5ncccc5c4)c3n2)C1` (stereo partly drawn) [3-bromo-N-[(1R,3R)-3-dimethylphosphoryl-cyclopentyl]-1-(8-pyrrolidin-3-yl-6-quinolyl) pyrazolo[3,4-d]pyrimidin-6-amine], the IC50 under setting [1] fell in the range of 25 to 200 nM.
In the case of `O=C([C@@H]1CC[C@@H](Nc2ncc3c(Br)nn(-c4ccc5ncccc5c4)c3n2)C1)N1CCC2(CCCCO2)C1` (stereo partly drawn) [((1R,3R)-3-((3-bromo-1-(quinolin-6-yl)-1H-pyrazolo[3,4-d]pyrimidin-6-yl)amino)cyclopentyl)(6-oxa-2-azaspiro[4.5]decan-2-yl)methanone], the IC50 under setting [1] lay within 200 to 500 nM.
`CNC(=O)[C@]1(C)CC[C@@H](Nc2ncc3c(Br)nn(-c4cc(CCNC(=O)/C=C/CN(C)C)c5ncccc5c4)c3n2)C1` [(1R,3R)-3-[[3-bromo-1-[8-[2-[[(E)-4-(dimethylamino)but-2-enoyl]amino]ethyl]-6-quinolyl]pyrazolo[3,4-d]pyrimidin-6-yl]amino]-N,1-dimethyl-cyclopentane-carboxamide]: the IC50 under setting [1] lay in the range of 25 to 200 nM.
In the case of `CNC(=O)[C@@]1([C@H](C)C#N)CC[C@@H](Nc2ncc3c(Br)nn(-c4ccc(-c5nnc(C)s5)cc4)c3n2)C1` [(1S,3R)-3-[[3-bromo-1-[4-(5-methyl-1,3,4-thiadiazol-2-yl)phenyl]pyrazolo [3,4-d]pyrimidin-6-yl]amino]-1-[(1S)-1-cyanoethyl]-N-methyl-cyclopentane-carboxamide], the IC50 under setting [1] was 25 to 200 nM.
Turning to `CNC(=O)[C@]1(C)CC[C@@H](Nc2ncc3c(Br)nn(-c4ccc(-c5nnc(C)o5)c(CCN)c4)c3n2)C1` [(1R,3R)-3-[[1-[3-(2-aminoethyl)-4-(5-methyl-1,3,4-oxadiazol-2-yl)phenyl]-3-bromopyrazolo[3,4-d]pyrimidin-6-yl]amino]-N,1-dimethyl-cyclopentane-carboxamide], under setting [1], the IC50 lay in the range of 25 to 200 nM.
Regarding `CNC(=O)[C@]1(C)CC[C@@H](Nc2ncc3c(Br)nn(-c4cc(N)c5ncccc5c4)c3n2)C1` [(1R,3R)-3-[[1-(8-amino-6-quinolyl)-3-bromo-pyrazolo[3,4-d]pyrimidin-6-yl]amino]-N,1-dimethyl-cyclopentane-carboxamide], the IC50 under setting [1] was 25 to 200 nM.
Take `CNC(=O)[C@]1(C)CC[C@@H](Nc2ncc3c(Br)nn(-c4ccc(C#N)c(OCCO)c4)c3n2)C1` [(1R,3R)-3-[[3-bromo-1-[4-cyano-3-(2-hydroxyethoxy)phenyl]pyrazolo[3,4-d]pyrimidin-6-yl]amino]-N,1-dimethyl-cyclopentanecarboxamide]: the IC50 under setting [1] lay within 25 to 200 nM.
On to `CNC(=O)[C@]1(C)CC[C@@H](Nc2ncc3c(Br)nn(-c4ccc(-c5nnc(CCOC)s5)cc4)c3n2)C1`, for which the IC50 under setting [1] was 25 to 200 nM.
Still for that read-out and setting: with `O=C(O)CCNC(=O)[C@@H]1CC[C@@H](Nc2ncc3c(Br)nn(-c4cc(F)c5ncccc5c4)c3n2)C1` [3-((1R,3R)-3-((3-bromo-1-(8-fluoroquinolin-6-yl)-1H-pyrazolo[3,4-d]pyrimidin-6-yl)amino)cyclopentane-1-carboxamido) propanoic acid] the figure was 25 to 200 nM; with `O=C(NC1CCS(=O)(=O)CC1)[C@@H]1CC[C@@H](Nc2ncc3c(Br)nn(-c4ccc5ncccc5c4)c3n2)C1`, 25 to 200 nM.
In the case of `Cn1ccnc1-c1ccc(-n2nc(Br)c3cnc(N[C@@H]4CC[C@@H](C(=O)NCCS(C)(=O)=O)C4)nc32)cc1` [(1R,3R)-3-((3-bromo-1-(4-(1-methyl-1H-imidazol-2-yl)phenyl)-1H-pyrazolo[3,4-d]pyrimidin-6-yl)amino)-N-(2-(methyl-sulfonyl)ethyl)cyclopentane-1-carboxamide], the IC50 under setting [1] lay in the range of 500 to 1000 nM.
Consider `CNC(=O)C1(C#N)CC[C@@H](Nc2ncc3c(Br)nn(-c4cc(Cl)cc([C@H](C)N)c4)c3n2)C1` (stereo partly drawn) [(3R)-3-[[1-[3-[(1S)-1-aminoethyl]-5-chloro-phenyl]-3-bromo-pyrazolo[3,4-d]pyrimidin-6-yl]amino]-1-cyano-N-methyl-cyclo-pentanecarboxamide; 2,2,2-trifluoroacetic acid], for which the IC50 under setting [1] is 25 to 200 nM.
Turning to `COCc1noc([C@@H]2CC[C@@H](Nc3ncc4c(Br)nn(-c5ccc6ncccc6c5)c4n3)C2)n1` [Example 5, 3-bromo-N-((1R,3R)-3-(3-(methoxymethyl)-1,2,4-oxadiazol-5-yl)cyclopentyl)-1-(quinolin-6-yl)-1H-pyrazolo[3,4-d]pyrimidin-6-amine], the IC50 under setting [2] is 500 to 1000 nM.
Turning to `CC1(C(=O)N2CCC(F)(C#N)C2)CC[C@@H](Nc2ncc3c(Br)nn(-c4cc(F)c5ncccc5c4)c3n2)C1` (stereo partly drawn) [1-[(3R)-3-[[3-bromo-1-(8-fluoro-6-quinolyl)pyrazolo[3,4-d]pyrimidin-6-yl]amino]-1-methyl-cyclopentanecarbonyl]-3-fluoro-pyrrolidine-3-carbonitrile], the IC50 under setting [1] fell in the range of 25 to 200 nM.
Still for that read-out and setting: next, `CS(=O)(=O)CCNC(=O)[C@@H]1CC[C@@H](Nc2ncc3c(Br)nn(-c4ccc5nccnc5c4)c3n2)C1` [(1R,3R)-3-((3-bromo-1-(quinoxalin-6-yl)-1H-pyrazolo[3,4-d]pyrimidin-6-yl)amino)-N-(2-(methylsulfonyl)ethyl)cyclopentane-1-carboxamide]: 200 to 500 nM.
`CNC(=O)[C@]1(C)CC[C@@H](Nc2ncc3c(Br)nn(-c4cc(COC)c5ncccc5c4)c3n2)C1` [(1R,3R)-3-[[3-bromo-1-[8-(methoxymethyl)-6-quinolyl]pyrazolo[3,4-d]pyrimidin-6-yl]amino]-N,1-dimethyl-cyclopentane-carboxamide]: the IC50 under setting [1] lay within 25 to 200 nM.
`CNC(=O)[C@]1(C)CC[C@@H](Nc2ncc3c(Br)nn(-c4cc(Cl)cc(C5CNC(=O)CO5)c4)c3n2)C1` (stereo partly drawn) [(1R,3R)-3-[[3-bromo-1-[3-chloro-5-(5-oxomorpholin-2-yl)phenyl]pyrazolo [3,4-d]pyrimidin-6-yl]amino]-N,1-dimethyl-cyclopentanecarboxamide]: the IC50 under setting [1] is 25 to 200 nM.
As for `CNC(=O)[C@@H]1CC[C@@H](Nc2ncc3c(I)nn(-c4ccc(-c5nnc(C)o5)cc4)c3n2)C1` [(1R,3R)-3-[[3-iodo-1-[4-(5-methyl-1,3,4-oxadiazol-2-yl)phenyl]pyrazolo[3,4-d]pyrimidin-6-yl]amino]-N-methyl-cyclopentanecarboxamide], the IC50 under setting [1] was in the range of 25 to 200 nM.
In the case of `C[C@@H]1CN(C(=O)[C@@H]2CC[C@@H](Nc3ncc4c(Br)nn(-c5ccc6ncccc6c5)c4n3)C2)CCO1` [((1R,3R)-3-((3-bromo-1-(quinolin-6-yl)-1H-pyrazolo[3,4-d]pyrimidin-6-yl)amino)cyclo-pentyl)((R)-2-methylmorpholino)methanone], the IC50 under setting [1] was in the range of 25 to 200 nM.
